IC50 data for 35 molecules are collected here from patent US11535621B2, “Heterobicyclic amides as inhibitors of CD38” (Ribon Therapeutics, Inc., priority 2019, dated 2022).

Each structure is given as a SMILES string.

Chain of Human CD38 (P28907 whole entry): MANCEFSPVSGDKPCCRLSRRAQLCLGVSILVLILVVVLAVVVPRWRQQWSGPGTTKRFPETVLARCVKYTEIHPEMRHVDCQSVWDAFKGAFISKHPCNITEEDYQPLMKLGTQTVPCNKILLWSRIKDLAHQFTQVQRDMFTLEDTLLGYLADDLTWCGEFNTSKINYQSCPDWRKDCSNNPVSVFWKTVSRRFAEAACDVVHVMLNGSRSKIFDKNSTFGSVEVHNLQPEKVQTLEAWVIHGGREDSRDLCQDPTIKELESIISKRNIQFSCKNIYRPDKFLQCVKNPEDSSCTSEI

In this test the target is Human CD38 (Homo sapiens (Human), UniProt P28907). Briefly: CD38 enzyme assay. Format: biochemical. The following applies: 2 nM CD38, NAD+ substrate, absorbance at 405 nm. Summed up:
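IC50 values come from fitting % inhibition against compound concentration with a 4-parameter logistic, or a 3-parameter fit with top/bottom fixed at 100/0 or Hill at 1. Inhibition is scaled between DMSO wells and positive-control wells treated with a quinolinone CD38 inhibitor.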
Regarding `CNC(=O)CO[C@H]1CC[C@H](NC(=O)c2nc(-n3ccnc3)nc3cc[nH]c23)CC1` [Example 80, 2-(1H-Imidazol-1-yl)-N-((1r,4r)-4-(2-(methylamino)-2-oxoethoxy)cyclohexyl)-5H-pyrrolo[3,2-d]pyrimidine-4-carboxamide], the half-inhibitory concentration (IC50) lay in the range of 10 to 100 nM.
Under `O=C(Nc1ccccn1)c1nc(-n2ccnc2)nc2cc[nH]c12` [Example 81, 2-(1H-Imidazol-1-yl)-N-(pyridin-2-yl)-5H-pyrrolo[3,2-d]pyrimidine-4-carboxamide] stands less than 10 nM.
As to `O=C(Nc1ccccc1)c1nc(-n2ccnc2)nc2cc[nH]c12` [Example 82, 2-(1H-Imidazol-1-yl)-N-phenyl-5H-pyrrolo[3,2-d]pyrimidine-4-carboxamide], the IC50 is less than 10 nM.
The molecule `O=C(Nc1cccnc1)c1nc(-n2ccnc2)nc2cc[nH]c12` [Example 83, 2-(1H-Imidazol-1-yl)-N-(pyridin-3-yl)-5H-pyrrolo[3,2-d]pyrimidine-4-carboxamide] registered an IC50 of less than 10 nM.
`COc1ccc(NC(=O)c2nc(-n3ccnc3)nc3cc[nH]c23)nc1` [Example 84, 2-(1H-Imidazol-1-yl)-N-(5-methoxypyridin-2-yl)-5H-pyrrolo[3,2-d]pyrimidine-4-carboxamide] came in with an IC50 of less than 10 nM.
In turn, `COc1ccc(NC(=O)c2nc(-n3ccnc3)nc3cc[nH]c23)cn1` [Example 85, 2-(1H-Imidazol-1-yl)-N-(6-methoxypyridin-3-yl)-5H-pyrrolo[3,2-d]pyrimidine-4-carboxamide] displayed a half-maximal inhibitory concentration (IC50) of less than 10 nM.
The molecule `O=C(Nc1cc[nH]n1)c1nc(-n2ccnc2)nc2cc[nH]c12` [Example 86, 2-(1H-Imidazol-1-yl)-N-(1H-pyrazol-3-yl)-5H-pyrrolo[3,2-d]pyrimidine-4-carboxamide] gave an IC50 of less than 10 nM.
Under `O=C(Nc1ccc(Cl)cc1)c1nc(-n2ccnc2)nc2cc[nH]c12` [Example 87, N-(4-Chlorophenyl)-2-(1H-imidazol-1-yl)-5H-pyrrolo[3,2-d]pyrimidine-4-carboxamide] stands less than 10 nM.
Turning to `O=C(Nc1cccc(Cl)c1)c1nc(-n2ccnc2)nc2cc[nH]c12` [Example 88, N-(3-Chlorophenyl)-2-(1H-imidazol-1-yl)-5H-pyrrolo[3,2-d]pyrimidine-4-carboxamide], the IC50 is less than 10 nM.
For `O=C(Nc1ccccc1Cl)c1nc(-n2ccnc2)nc2cc[nH]c12` [Example 89, N-(2-Chlorophenyl)-2-(1H-imidazol-1-yl)-5H-pyrrolo[3,2-d]pyrimidine-4-carboxamide] the value was less than 10 nM; for `O=C(NC1CCCC1)c1nc(-n2ccnc2)nc2cc[nH]c12` [Example 90, N-Cyclopentyl-2-(1H-imidazol-1-yl)-5H-pyrrolo[3,2-d]pyrimidine-4-carboxamide], less than 10 nM.
In the case of `O=C(NC1CCOC1)c1nc(-n2ccnc2)nc2cc[nH]c12` (centres unmarked) [Example 91, 2-(1H-Imidazol-1-yl)-N-(tetrahydrofuran-3-yl)-5H-pyrrolo[3,2-d]pyrimidine-4-carboxamide], the half-inhibitory concentration (IC50) was less than 10 nM.
Consider `O=C(NC1CCCCCC1)c1nc(-n2ccnc2)nc2cc[nH]c12` [Example 92, N-Cycloheptyl-2-(1H-imidazol-1-yl)-5H-pyrrolo[3,2-d]pyrimidine-4-carboxamide], for which the IC50 is less than 10 nM.
As for `CC(C)NC(=O)c1nc(-n2ccnc2)nc2cc[nH]c12` [Example 93, 2-(1H-Imidazol-1-yl)-N-isopropyl-5H-pyrrolo[3,2-d]pyrimidine-4-carboxamide], the IC50 lay in the range of 10 to 100 nM.
In turn, `Cn1ccc(NC(=O)c2nc(-n3ccnc3)nc3cc[nH]c23)n1` [Example 94, 2-(1H-Imidazol-1-yl)-N-(1-methyl-1H-pyrazol-3-yl)-5H-pyrrolo[3,2-d]pyrimidine-4-carboxamide] came in with an IC50 of less than 10 nM.
For `Cn1cnc(NC(=O)c2nc(-n3ccnc3)nc3cc[nH]c23)c1` [Example 95, 2-(1H-Imidazol-1-yl)-N-(1-methyl-1H-imidazol-4-yl)-5H-pyrrolo[3,2-d]pyrimidine-4-carboxamide] the value was 10 to 100 nM; for `O=C(Nc1ccc(F)c(Cl)c1)c1nc(-n2ccnc2)nc2cc[nH]c12` [Example 96, N-(3-Chloro-4-fluorophenyl)-2-(1H-imidazol-1-yl)-5H-pyrrolo[3,2-d]pyrimidine-4-carboxamide], less than 10 nM.
Consider `O=C(N[C@H]1CC[C@H](OCCN2CCOCC2)CC1)c1nc(-n2ccnc2)nc2cc[nH]c12` [Example 97, 2-(1H-Imidazol-1-yl)-N-((1r,4r)-4-(2-morpholinoethoxy)cyclohexyl)-5H-pyrrolo[3,2-d]pyrimidine-4-carboxamide], for which the IC50 lay in the range of 10 to 100 nM.
Under `O=C(Nc1cn[nH]c1)c1nc(-n2ccnc2)nc2cc[nH]c12` [Example 98, 2-(1H-Imidazol-1-yl)-N-(1H-pyrazol-4-yl)-5H-pyrrolo[3,2-d]pyrimidine-4-carboxamide] stands less than 10 nM; under `Cn1cc(NC(=O)c2nc(-n3ccnc3)nc3cc[nH]c23)cn1` [Example 99, 2-(1H-Imidazol-1-yl)-N-(1-methyl-1H-pyrazol-4-yl)-5H-pyrrolo[3,2-d]pyrimidine-4-carboxamide], less than 10 nM; under `COCCOc1cccc(NC(=O)c2nc(-n3ccnc3)nc3cc[nH]c23)c1` [Example 100, 2-(1H-Imidazol-1-yl)-N-(3-(2-methoxyethoxy)phenyl)-5H-pyrrolo[3,2-d]pyrimidine-4-carboxamide], less than 10 nM.
Turning to `O=C(N[C@H]1CC[C@H](NCC(F)(F)F)CC1)c1nc(-n2ccnc2)nc2cc[nH]c12` [Example 101, 2-(1H-imidazol-1-yl)-N-((1r,4r)-4-((2,2,2-trifluoroethyl)amino)cyclohexyl)-5H-pyrrolo[3,2-d]pyrimidine-4-carboxamide], the IC50 was in the range of 10 to 100 nM.
For `O=C(N[C@H]1CC[C@@H](NCC(F)(F)F)CC1)c1nc(-n2ccnc2)nc2cc[nH]c12` [Example 102, 2-(1H-imidazol-1-yl)-N-((1s,4s)-4-((2,2,2-trifluoroethyl)amino)cyclohexyl)-5H-pyrrolo[3,2-d]pyrimidine-4-carboxamide] the value was 10 to 100 nM; for `O=C(N[C@H]1CC[C@H](NCCC(F)(F)F)CC1)c1nc(-n2ccnc2)nc2cc[nH]c12` [Example 103, 2-(1H-imidazol-1-yl)-N-((1r,4r)-4-((3,3,3-trifluoropropyl)amino)cyclohexyl)-5H-pyrrolo[3,2-d]pyrimidine-4-carboxamide], 10 to 100 nM.
For `N#CCO[C@H]1CC[C@H](NC(=O)c2nc(-n3ccnc3)nc3cc[nH]c23)CC1` [Example 104, N-((1r,4r)-4-(cyanomethoxy)cyclohexyl)-2-(1H-imidazol-1-yl)-5H-pyrrolo[3,2-d]pyrimidine-4-carboxamide] the value was less than 10 nM.
Molecule `O=C(N[C@H]1CC[C@H](NCC(F)F)CC1)c1nc(-n2ccnc2)nc2cc[nH]c12` [Example 105, N-((1r,4r)-4-((2,2-difluoroethyl)amino)cyclohexyl)-2-(1H-imidazol-1-yl)-5H-pyrrolo[3,2-d]pyrimidine-4-carboxamide] yielded an IC50 of 10 to 100 nM.
As for `O=C(N[C@H]1CC[C@@H](NCC(F)F)CC1)c1nc(-n2ccnc2)nc2cc[nH]c12` [Example 106, N-((1s,4s)-4-((2,2-difluoroethyl)amino)cyclohexyl)-2-(1H-imidazol-1-yl)-5H-pyrrolo[3,2-d]pyrimidine-4-carboxamide], the concentration for half-maximal inhibition (IC50) is 100 to 1000 nM.
Under `O=C(NC1CCC(F)(F)CC1)c1nc(-n2ccnc2)cc2cn[nH]c12` [Example 107, N-(4,4-difluorocyclohexyl)-5-(1H-imidazol-1-yl)-1H-pyrazolo[3,4-c]pyridine-7-carboxamide] stands less than 10 nM; under `COCCO[C@H]1CC[C@H](NC(=O)c2nc(-n3ccnc3)nc3cc(C)[nH]c23)CC1` [Example 108, 2-(1H-imidazol-1-yl)-N-((1r,4r)-4-(2-methoxyethoxy)cyclohexyl)-6-methyl-5H-pyrrolo[3,2-d]pyrimidine-4-carboxamide], 10 to 100 nM.
For the molecule `CC(C)(O)[C@H]1CC[C@H](NC(=O)c2nc(-n3ccnc3)cc3cn[nH]c23)CC1` [Example 109, N-((1r,4r)-4-(2-hydroxypropan-2-yl)cyclohexyl)-5-(1H-imidazol-1-yl)-1H-pyrazolo[3,4-c]pyridine-7-carboxamide], the IC50 was less than 10 nM.
In turn, `CN(CCC(F)(F)F)[C@H]1CC[C@H](NC(=O)c2nc(-n3ccnc3)nc3cc[nH]c23)CC1` [Example 110, 2-(1H-imidazol-1-yl)-N-((1r,4r)-4-(methyl(3,3,3-trifluoropropyl)amino)cyclohexyl)-5H-pyrrolo[3,2-d]pyrimidine-4-carboxamide] showed a half-inhibitory concentration (IC50) of 10 to 100 nM.
`CN(CCC(F)(F)F)[C@H]1CC[C@@H](NC(=O)c2nc(-n3ccnc3)nc3cc[nH]c23)CC1` [Example 111, 2-(1H-imidazol-1-yl)-N-((1s,4s)-4-(methyl(3,3,3-trifluoropropyl)amino)cyclohexyl)-5H-pyrrolo[3,2-d]pyrimidine-4-carboxamide] came in with a half-inhibitory concentration (IC50) of 100 to 1000 nM.
Under `CN(CC(F)(F)F)[C@H]1CC[C@H](NC(=O)c2nc(-n3ccnc3)nc3cc[nH]c23)CC1` [Example 112, 2-(1H-imidazol-1-yl)-N-((1r,4r)-4-(methyl(2,2,2-trifluoroethyl)amino)cyclohexyl)-5H-pyrrolo[3,2-d]pyrimidine-4-carboxamide] stands 10 to 100 nM; under `CN(CC(F)(F)F)[C@H]1CC[C@@H](NC(=O)c2nc(-n3ccnc3)nc3cc[nH]c23)CC1` [Example 113, 2-(1H-imidazol-1-yl)-N-((1s,4s)-4-(methyl(2,2,2-trifluoroethyl)amino)cyclohexyl)-5H-pyrrolo[3,2-d]pyrimidine-4-carboxamide], 10 to 100 nM; under `CC(=O)NC[C@H]1CC[C@H](NC(=O)c2nc(-n3ccnc3)nc3cc[nH]c23)CC1` [Example 114, N-((1r,4r)-4-(acetamidomethyl)cyclohexyl)-2-(1H-imidazol-1-yl)-5H-pyrrolo[3,2-d]pyrimidine-4-carboxamide], less than 10 nM.
